From PubChem BioAssay AID1845207 (Molecular Pharmacology Branch, DTP, NCI, 2023)

Test system: NCI-H1876 tumor spheroid viability
Test: Anticancer human tumor NCI-H1876 cell line growth inhibition;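 also: spheroids exposed to compounds for seven days before the viability read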;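 as to viability, T/C: percent of DMSO vehicle control viability so 100% = vehicle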
Conditions: spheroids with HUVEC and MSC; for IC50: curve of first compound; for viability, T/C: stronger effect = lower value
Procedure, shortened: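 Single agents and combinations were tested on spheroids built from tumor cells plus HUVEC and hMSC, at half-log dilutions starting at or near clinical Cmax, else 10 microM; final DMSO 0.25% (v/v).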

[1] = second compound 1 µM, first compound 0.0316 µM
[2] = second compound 1 µM, first compound 0.1 µM
[3] = second compound 1 µM, first compound 0.316 µM
[4] = second compound 1 µM, first compound 1 µM
[5] = second compound 1 µM, first compound 3.16 µM
[6] = second compound 1 µM, first compound 10 µM
[7] = second compound 3.16 µM, first compound 0.0316 µM
[8] = second compound 3.16 µM, first compound 0.1 µM
[9] = second compound 3.16 µM, first compound 0.316 µM
[10] = second compound 3.16 µM, first compound 1 µM
[11] = second compound 3.16 µM, first compound 3.16 µM
[12] = second compound 3.16 µM, first compound 10 µM
[13] = second compound 10 µM, first compound 0.0316 µM
[14] = second compound 10 µM, first compound 0.1 µM
[15] = second compound 10 µM, first compound 0.316 µM
[16] = second compound 10 µM, first compound 1 µM
[17] = second compound 10 µM, first compound 3.16 µM
[18] = second compound 10 µM, first compound 10 µM
[19] = second compound 31.6 µM, first compound 0.0316 µM
[20] = second compound 31.6 µM, first compound 0.1 µM
[21] = second compound 31.6 µM, first compound 0.316 µM
[22] = second compound 31.6 µM, first compound 1 µM
[23] = second compound 31.6 µM, first compound 3.16 µM
[24] = second compound 31.6 µM, first compound 10 µM
[25] = second compound 100 µM, first compound 0.0316 µM
[26] = second compound 100 µM, first compound 0.1 µM
[27] = second compound 100 µM, first compound 0.316 µM
[28] = second compound 100 µM, first compound 1 µM
[29] = second compound 100 µM, first compound 3.16 µM
[30] = second compound 100 µM, first compound 10 µM

SMILES | IC50 (second compound 1 µM) [nM] | IC50 (second compound 3.16 µM) [nM] | IC50 (second compound 10 µM) [nM] | IC50 (second compound 31.6 µM) [nM] | IC50 (second compound 100 µM) [nM] | viability, T/C [1] [%] | viability, T/C [2] [%] | viability, T/C [3] [%] | viability, T/C [4] [%] | viability, T/C [5] [%] | viability, T/C [6] [%] | viability, T/C [7] [%] | viability, T/C [8] [%] | viability, T/C [9] [%] | viability, T/C [10] [%] | viability, T/C [11] [%] | viability, T/C [12] [%] | viability, T/C [13] [%] | viability, T/C [14] [%] | viability, T/C [15] [%] | also measured
CC(C)n1c(=O)n(C)c2cnc3cc(F)c(-c4ccc(OCCCN5CCCCC5)nc4)cc3c21 + Cn1nnc2c(C(N)=O)ncn2c1=O | 411 | 517 | 571 | 623 | 176 | 87 | 68.1 | 51.6 | 39.2 | 27.7 | 12.1 | 88.9 | 70.7 | 54.7 | 42.6 | 29.6 | 12.8 | 85.5 | 68.6 | 55.4 | viability, T/C [16]: 41.6%; viability, T/C [17]: 36.1%; viability, T/C [18]: 11.4%; viability, T/C [19]: 84.8%; viability, T/C [20]: 72.5%; viability, T/C [21]: 58.7%; viability, T/C [22]: 42.8%; viability, T/C [23]: 29.7%; viability, T/C [24]: 12.8%; viability, T/C [25]: 62.4%; viability, T/C [26]: 55.2%; viability, T/C [27]: 43.2%; viability, T/C [28]: 35.3%; viability, T/C [29]: 25.9%; viability, T/C [30]: 10.2%
CC1COCCN1c1cc(-c2ccnn2C)c2ccnc(-c3ccn[nH]3)c2n1 (stereo not given) + Cn1nnc2c(C(N)=O)ncn2c1=O | 55.4 | 54.5 | 59.8 | 33.6 | < 31.6 | 57 | 42.4 | 30.1 | 20.7 | 11.2 | 6.47 | 57.7 | 41.3 | 30.1 | 19.4 | 12.5 | 6.71 | 53 | 49.1 | 30.1 | viability, T/C [16]: 20%; viability, T/C [17]: 11%; viability, T/C [18]: 7.84%; viability, T/C [19]: 51.5%; viability, T/C [20]: 35.6%; viability, T/C [21]: 29.5%; viability, T/C [22]: 17.2%; viability, T/C [23]: 10.8%; viability, T/C [24]: 7.29%; viability, T/C [25]: 32.2%; viability, T/C [26]: 24%; viability, T/C [27]: 18.8%; viability, T/C [28]: 11.7%; viability, T/C [29]: 28.5%; viability, T/C [30]: 6.09%
COc1cc(C)[nH]c(=O)c1CN1CCc2c(Cl)cc(C(OC)C3COC3)c(Cl)c2C1=O (stereo not given) + Cn1nnc2c(C(N)=O)ncn2c1=O | > 10000 | > 10000 | > 10000 | > 10000 | > 10000 | 112 | 108 | 109 | 90.8 | 92.7 | 70.4 | 117 | 117 | 110 | 102 | 89.9 | 75.4 | 108 | 109 | 107 | viability, T/C [16]: 100%; viability, T/C [17]: 95%; viability, T/C [18]: 79.1%; viability, T/C [19]: 108%; viability, T/C [20]: 107%; viability, T/C [21]: 107%; viability, T/C [22]: 102%; viability, T/C [23]: 86.5%; viability, T/C [24]: 71.3%; viability, T/C [25]: 92.2%; viability, T/C [26]: 91.4%; viability, T/C [27]: 81.2%; viability, T/C [28]: 81.4%; viability, T/C [29]: 81.7%; viability, T/C [30]: 72.3%
COc1ccc([C@@H](O)c2cc(-c3ncnc4cc(N5CCOCC5)ccc34)c(F)cc2Cl)nn1 + Cn1nnc2c(C(N)=O)ncn2c1=O | 1080 | 1210 | 1000 | 970 | 335 | 93.8 | 86.7 | 74.3 | 49 | 29 | 4.64 | 97.5 | 85.2 | 80 | 53.7 | 26.5 | 4.48 | 94.4 | 86.3 | 72 | viability, T/C [16]: 51%; viability, T/C [17]: 23.5%; viability, T/C [18]: 3.37%; viability, T/C [19]: 90.8%; viability, T/C [20]: 82.2%; viability, T/C [21]: 73.1%; viability, T/C [22]: 47.7%; viability, T/C [23]: 25.1%; viability, T/C [24]: 4.04%; viability, T/C [25]: 48.4%; viability, T/C [26]: 65.8%; viability, T/C [27]: 48.5%; viability, T/C [28]: 36.1%; viability, T/C [29]: 17.8%; viability, T/C [30]: 2.3%
Cc1cc(C)c(CNC(=O)c2cc(-c3ccc(CN4CCOCC4)cc3)cc3c2cnn3C2CCCC2)c(=O)[nH]1 + Cn1nnc2c(C(N)=O)ncn2c1=O | 713 | 873 | 546 | 750 | 201 | 93.8 | 79.2 | 60.2 | 44.8 | 29.3 | 9.14 | 85.7 | 78.6 | 64 | 49.8 | 27.2 | 12.2 | 88.7 | 58.5 | 61.8 | viability, T/C [16]: 46.8%; viability, T/C [17]: 26.6%; viability, T/C [18]: 13.3%; viability, T/C [19]: 53.8%; viability, T/C [20]: 74.6%; viability, T/C [21]: 59.3%; viability, T/C [22]: 44.7%; viability, T/C [23]: 26.3%; viability, T/C [24]: 10.7%; viability, T/C [25]: 58.8%; viability, T/C [26]: 52.3%; viability, T/C [27]: 47%; viability, T/C [28]: 39.8%; viability, T/C [29]: 25.2%; viability, T/C [30]: 8.6%
[2H]c1nc(C)nc([2H])c1-c1cc(NC[C@@H](C)c2cccc3c(C(=O)NC)ccnc23)ncn1 + Cn1nnc2c(C(N)=O)ncn2c1=O | > 10000 | > 10000 | > 10000 | > 10000 | > 10000 | 98.1 | 98.7 | 101 | 101 | 86.8 | 67.6 | 106 | 104 | 95.4 | 106 | 88.8 | 77.2 | 104 | 103 | 106 | viability, T/C [16]: 101%; viability, T/C [17]: 89.3%; viability, T/C [18]: 71.5%; viability, T/C [19]: 91.8%; viability, T/C [20]: 55.8%; viability, T/C [21]: 91.7%; viability, T/C [22]: 95.5%; viability, T/C [23]: 89.2%; viability, T/C [24]: 50.1%; viability, T/C [25]: 69.5%; viability, T/C [26]: 76.9%; viability, T/C [27]: 70.4%; viability, T/C [28]: 66.2%; viability, T/C [29]: 65.1%; viability, T/C [30]: 58.3%
